Columns and labels:
parental Ba/F3 cells = assay: Ba/F3 cell viability assay; assay type: cell-based; details: Mus musculus, BaF3, 72 h, CCK-8
KIT[D816V] = KIT[D816V] (Homo sapiens, UniProt P10721, D816V); assay: Kinase selectivity profiling
EPHB3 = EPHB3 (Homo sapiens, UniProt P54753); assay: Kinase selectivity profiling
AMPKα1/β1/γ1 = AMPKα1/β1/γ1 (Homo sapiens, UniProt Q13131); assay: Kinase selectivity profiling
PAK3 = PAK3 (Homo sapiens, UniProt O75914); assay: Kinase selectivity profiling
KDR (VEGFR2) = KDR (VEGFR2) (Homo sapiens, UniProt P35968); assay: Kinase selectivity profiling
FAK = FAK (Homo sapiens, UniProt Q05397); assay: Kinase selectivity profiling
AXL = AXL (Homo sapiens, UniProt P30530); assay: Kinase selectivity profiling
CHK1(CHEK1) = CHK1(CHEK1) (Homo sapiens, UniProt O14757); assay: Kinase selectivity profiling
BMX = BMX (Homo sapiens, UniProt P51813); assay: Kinase selectivity profiling
EPHA2 = EPHA2 (Homo sapiens, UniProt P29317); assay: Kinase selectivity profiling
TRKC(NTRK3) = TRKC(NTRK3) (Homo sapiens, UniProt Q16288); assay: Kinase selectivity profiling
p38β = p38β (Homo sapiens, UniProt Q15759); assay: Kinase selectivity profiling
TSSK1 = TSSK1 (Homo sapiens, UniProt Q9BXA7); assay: Kinase selectivity profiling
FGFR1 = FGFR1 (Homo sapiens, UniProt P11362); assay: Kinase inhibition assay (ADP-Glo); assay type: biochemical; set-up: human FGFR1 (residues 456–765); 6xHis + PreScission site (N, cleaved yes); made in house; host or cells: Escherichia coli Rosseta
Experimental: Wild-type FGFRs and mutant FGFRs were prepared as previously described[25]–[27]. In brief, the kinase domains of human FGFR1 (residues 456–765), FGFR2 (residues 453–770), FGFR3 (residues 450–758), and FGFR4 (residues 445–753) were cloned into a modified pET28a expression vector and then transfected into Escherichia coli Rosseta cells. The N-terminal of the recombinant proteins were contained a 6xHis tag followed by a PreScission cleavage site for FGFR1, FGFR2, FGFR3, and FGFR4. Site-directed mutagenesis of FGFR4 was generated according to the ClonExpress II One Step Cloning Kit (Vazyme) using the pET28a-FGFR4 plasmid as the template. These mutants were confirmed by DNA sequencing (Tsingke, Changsha, China). For crystallization experiments, the wild-type FGFR4 plasmid was co-expressed with untagged YOPH to obtain non-phosphorylated proteins. The proteins were first purified by Ni-NTA affinity chromatography. […]
All kinase inhibition assays were performed with optimized kinase assay buffer consisting of 40 mM Tris-HCl pH 7.5, 20 mM MgCl2, 20 mM NaCl, 0.1 mg/mL BSA, 1 mM TCEP, and 4% DMSO. […] Fluorescence was measured on a multimode plate reader (Perkin-Elmer) using a chemiluminescence program after the addition of the detection reagent. IC50 values were determined using a three-parameter log [Inhibitor] versus response model in GraphPad Prism software.

CK2α2/β = CK2α2/β (Homo sapiens, UniProt P19784); assay: Kinase selectivity profiling
EPHA4 = EPHA4 (Homo sapiens, UniProt P54764); assay: Kinase selectivity profiling
HER2 = HER2 (Homo sapiens, UniProt P04626); assay: Kinase selectivity profiling
ALK = ALK (Homo sapiens, UniProt Q9UM73); assay: Kinase selectivity profiling
DYRK1A = DYRK1A (Homo sapiens, UniProt Q13627); assay: Kinase selectivity profiling
TAOK1 = TAOK1 (Homo sapiens, UniProt Q7L7X3); assay: Kinase selectivity profiling
BRAF[V600E] = BRAF[V600E] (Homo sapiens, UniProt P15056, V600E); assay: Kinase selectivity profiling
KIT = KIT (Homo sapiens, UniProt P10721); assay: Kinase selectivity profiling
PDGFRa = PDGFRa (Homo sapiens, UniProt P16234); assay: Kinase selectivity profiling
MER = MER (Homo sapiens, UniProt Q12866); assay: Kinase selectivity profiling
IKKε(IKBKE) = IKKε(IKBKE) (Homo sapiens, UniProt Q14164); assay: Kinase selectivity profiling
CK1γ3 = CK1γ3 (Homo sapiens, UniProt Q9Y6M4); assay: Kinase selectivity profiling
INSR = INSR (Homo sapiens, UniProt P06213); assay: Kinase selectivity profiling

Sequence of EPHB3 (P54753 34-998): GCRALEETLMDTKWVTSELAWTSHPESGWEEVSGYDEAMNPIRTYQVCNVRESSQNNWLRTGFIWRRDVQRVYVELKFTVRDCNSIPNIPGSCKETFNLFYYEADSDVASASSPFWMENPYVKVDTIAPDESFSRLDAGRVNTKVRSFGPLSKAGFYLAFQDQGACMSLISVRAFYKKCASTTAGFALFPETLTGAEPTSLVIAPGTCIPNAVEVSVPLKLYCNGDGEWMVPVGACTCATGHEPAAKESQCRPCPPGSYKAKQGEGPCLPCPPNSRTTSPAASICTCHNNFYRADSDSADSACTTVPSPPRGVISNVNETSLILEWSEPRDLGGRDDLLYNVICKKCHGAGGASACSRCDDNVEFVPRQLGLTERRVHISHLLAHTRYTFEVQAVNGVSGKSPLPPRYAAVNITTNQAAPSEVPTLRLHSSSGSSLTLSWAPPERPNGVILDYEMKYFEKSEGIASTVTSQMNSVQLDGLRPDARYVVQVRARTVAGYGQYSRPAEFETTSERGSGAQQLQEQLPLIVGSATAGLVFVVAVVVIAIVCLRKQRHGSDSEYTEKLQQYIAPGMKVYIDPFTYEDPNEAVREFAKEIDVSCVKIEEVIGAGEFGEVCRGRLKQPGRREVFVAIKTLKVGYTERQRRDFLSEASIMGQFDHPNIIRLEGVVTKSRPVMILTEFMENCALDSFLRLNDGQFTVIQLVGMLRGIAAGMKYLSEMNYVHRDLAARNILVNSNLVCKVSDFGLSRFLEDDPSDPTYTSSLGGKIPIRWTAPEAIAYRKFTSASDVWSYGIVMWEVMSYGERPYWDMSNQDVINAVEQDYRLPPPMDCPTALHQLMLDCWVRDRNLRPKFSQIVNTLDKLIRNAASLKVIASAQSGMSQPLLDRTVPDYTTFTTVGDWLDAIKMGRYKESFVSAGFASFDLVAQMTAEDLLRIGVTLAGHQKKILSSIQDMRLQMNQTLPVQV
Sequence of TAOK1 (Q7L7X3 whole entry): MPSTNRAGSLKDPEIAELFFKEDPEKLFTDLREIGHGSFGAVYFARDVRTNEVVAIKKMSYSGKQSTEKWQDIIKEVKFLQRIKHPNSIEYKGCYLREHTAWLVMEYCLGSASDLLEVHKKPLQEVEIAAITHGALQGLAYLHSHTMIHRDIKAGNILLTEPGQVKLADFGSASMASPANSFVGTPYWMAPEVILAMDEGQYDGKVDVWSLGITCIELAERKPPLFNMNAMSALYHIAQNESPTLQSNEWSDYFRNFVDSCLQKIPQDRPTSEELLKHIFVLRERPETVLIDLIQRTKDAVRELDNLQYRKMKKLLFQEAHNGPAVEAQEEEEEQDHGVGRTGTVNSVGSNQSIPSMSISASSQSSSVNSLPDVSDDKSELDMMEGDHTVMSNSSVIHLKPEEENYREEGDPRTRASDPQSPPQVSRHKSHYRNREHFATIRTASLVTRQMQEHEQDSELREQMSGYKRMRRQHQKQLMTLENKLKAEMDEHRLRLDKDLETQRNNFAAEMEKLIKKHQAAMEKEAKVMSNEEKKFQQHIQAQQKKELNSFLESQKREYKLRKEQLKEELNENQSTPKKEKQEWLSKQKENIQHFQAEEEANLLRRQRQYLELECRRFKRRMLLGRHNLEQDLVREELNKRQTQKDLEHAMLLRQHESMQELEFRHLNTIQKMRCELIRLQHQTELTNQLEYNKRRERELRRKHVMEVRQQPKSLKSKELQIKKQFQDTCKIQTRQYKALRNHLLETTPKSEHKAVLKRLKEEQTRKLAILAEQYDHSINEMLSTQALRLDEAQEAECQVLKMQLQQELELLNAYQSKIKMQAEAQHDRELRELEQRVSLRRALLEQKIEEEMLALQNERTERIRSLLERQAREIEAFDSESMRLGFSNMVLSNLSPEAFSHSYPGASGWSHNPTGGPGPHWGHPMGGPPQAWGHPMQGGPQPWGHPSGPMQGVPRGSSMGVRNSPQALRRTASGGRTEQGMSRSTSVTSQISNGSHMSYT
Sequence of CK1γ3 (Q9Y6M4 whole entry): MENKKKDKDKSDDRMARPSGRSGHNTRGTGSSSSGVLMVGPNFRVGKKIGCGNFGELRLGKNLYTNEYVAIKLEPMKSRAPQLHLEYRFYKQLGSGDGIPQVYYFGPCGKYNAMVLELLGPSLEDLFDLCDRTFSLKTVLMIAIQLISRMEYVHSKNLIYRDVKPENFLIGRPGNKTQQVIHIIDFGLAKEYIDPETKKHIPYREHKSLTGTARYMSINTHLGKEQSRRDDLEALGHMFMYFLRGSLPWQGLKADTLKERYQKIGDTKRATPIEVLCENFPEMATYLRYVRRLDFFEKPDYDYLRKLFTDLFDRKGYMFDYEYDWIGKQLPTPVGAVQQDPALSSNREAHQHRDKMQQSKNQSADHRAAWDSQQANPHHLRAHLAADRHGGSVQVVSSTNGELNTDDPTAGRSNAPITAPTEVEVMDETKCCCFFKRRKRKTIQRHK
Sequence of KIT[D816V] (P10721 26-976 D816V): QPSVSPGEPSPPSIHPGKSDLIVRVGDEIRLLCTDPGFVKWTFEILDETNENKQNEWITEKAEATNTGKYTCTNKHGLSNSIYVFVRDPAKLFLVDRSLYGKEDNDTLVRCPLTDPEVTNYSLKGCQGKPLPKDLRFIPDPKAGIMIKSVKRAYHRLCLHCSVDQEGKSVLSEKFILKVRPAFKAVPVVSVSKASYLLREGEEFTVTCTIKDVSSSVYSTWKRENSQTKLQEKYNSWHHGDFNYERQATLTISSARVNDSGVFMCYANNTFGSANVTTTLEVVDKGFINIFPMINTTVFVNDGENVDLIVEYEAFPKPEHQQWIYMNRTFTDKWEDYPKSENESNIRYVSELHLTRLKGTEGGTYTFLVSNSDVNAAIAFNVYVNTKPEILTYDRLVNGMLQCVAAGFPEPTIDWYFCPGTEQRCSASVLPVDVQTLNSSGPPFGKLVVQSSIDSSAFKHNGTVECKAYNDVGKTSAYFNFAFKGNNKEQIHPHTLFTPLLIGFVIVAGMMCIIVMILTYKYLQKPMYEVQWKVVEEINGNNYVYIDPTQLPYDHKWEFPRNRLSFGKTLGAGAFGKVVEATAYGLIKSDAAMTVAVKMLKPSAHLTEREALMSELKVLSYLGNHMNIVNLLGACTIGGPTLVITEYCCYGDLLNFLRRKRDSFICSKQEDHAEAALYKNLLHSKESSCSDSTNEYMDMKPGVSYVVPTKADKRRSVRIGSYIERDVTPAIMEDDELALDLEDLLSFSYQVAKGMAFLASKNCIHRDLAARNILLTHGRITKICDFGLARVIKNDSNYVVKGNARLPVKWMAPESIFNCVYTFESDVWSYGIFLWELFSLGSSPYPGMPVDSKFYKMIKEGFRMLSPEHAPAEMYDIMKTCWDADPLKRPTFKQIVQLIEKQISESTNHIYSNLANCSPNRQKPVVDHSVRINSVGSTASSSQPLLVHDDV
Sequence of TSSK1 (Q9BXA7 whole entry, the tested form may be a part): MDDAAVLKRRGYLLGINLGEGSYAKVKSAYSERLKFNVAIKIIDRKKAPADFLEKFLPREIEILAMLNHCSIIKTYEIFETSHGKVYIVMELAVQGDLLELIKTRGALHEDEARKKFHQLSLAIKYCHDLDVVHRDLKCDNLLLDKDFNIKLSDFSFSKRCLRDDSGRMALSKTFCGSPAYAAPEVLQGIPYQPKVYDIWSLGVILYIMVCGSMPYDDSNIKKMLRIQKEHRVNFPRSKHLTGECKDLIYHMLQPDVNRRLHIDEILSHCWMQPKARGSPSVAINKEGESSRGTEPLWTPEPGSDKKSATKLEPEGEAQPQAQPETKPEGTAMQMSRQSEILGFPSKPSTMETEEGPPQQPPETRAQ
Sequence of KIT (P10721 26-976): as the sequence (P10721 26-976 D816V) above, with V791D counted along it
Sequence of BMX (P51813 whole entry): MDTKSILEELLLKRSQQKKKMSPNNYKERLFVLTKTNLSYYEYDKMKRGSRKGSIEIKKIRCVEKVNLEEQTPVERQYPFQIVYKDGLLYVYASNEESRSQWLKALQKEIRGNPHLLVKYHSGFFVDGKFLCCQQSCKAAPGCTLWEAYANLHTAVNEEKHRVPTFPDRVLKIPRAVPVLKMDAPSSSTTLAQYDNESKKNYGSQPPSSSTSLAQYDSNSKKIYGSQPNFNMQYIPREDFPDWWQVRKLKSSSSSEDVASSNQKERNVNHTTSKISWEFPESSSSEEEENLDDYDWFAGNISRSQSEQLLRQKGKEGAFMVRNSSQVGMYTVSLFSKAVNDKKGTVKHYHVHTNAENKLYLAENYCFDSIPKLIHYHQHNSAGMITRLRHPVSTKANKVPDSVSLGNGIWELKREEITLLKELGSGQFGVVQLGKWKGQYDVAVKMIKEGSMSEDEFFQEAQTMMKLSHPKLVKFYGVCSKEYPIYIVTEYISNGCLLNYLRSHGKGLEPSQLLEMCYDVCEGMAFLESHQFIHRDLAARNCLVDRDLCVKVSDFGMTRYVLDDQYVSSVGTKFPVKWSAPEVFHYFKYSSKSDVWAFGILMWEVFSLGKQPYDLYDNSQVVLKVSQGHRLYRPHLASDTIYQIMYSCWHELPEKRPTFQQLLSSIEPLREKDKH
Sequence of p38β (Q15759 whole entry): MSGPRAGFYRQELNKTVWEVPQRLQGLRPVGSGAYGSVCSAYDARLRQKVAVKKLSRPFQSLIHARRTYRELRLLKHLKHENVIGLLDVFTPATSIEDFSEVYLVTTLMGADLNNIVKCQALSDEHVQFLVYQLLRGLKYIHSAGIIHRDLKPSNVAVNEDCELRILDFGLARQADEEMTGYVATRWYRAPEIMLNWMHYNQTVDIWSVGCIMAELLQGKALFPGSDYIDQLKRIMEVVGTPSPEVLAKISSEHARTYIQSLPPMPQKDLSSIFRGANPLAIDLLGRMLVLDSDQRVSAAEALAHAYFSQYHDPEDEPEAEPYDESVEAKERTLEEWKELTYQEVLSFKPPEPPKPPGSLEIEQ

C=CC(=O)Nc1ccccc1Nc1ncc2c(n1)N(CCCN1CCN(C(=O)C=C)CC1)C(=O)N(c1cc(OC)cc(OC)c1)C2 [CXF-009]
IC50 (parental Ba/F3 cells): > 5 µM
inhibition at 1 µM (KIT[D816V]): -6.19%
inhibition at 1 µM (EPHB3): -0.82%
inhibition at 1 µM (AMPKα1/β1/γ1): 2.23%
inhibition at 1 µM (PAK3): 0.97%
inhibition at 1 µM (KDR (VEGFR2)): -5.37%
inhibition at 1 µM (FAK): -0.41%
inhibition at 1 µM (AXL): -7.53%
inhibition at 1 µM (CHK1(CHEK1)): 1.53%
inhibition at 1 µM (BMX): 10.5%
inhibition at 1 µM (EPHA2): 2.12%
inhibition at 1 µM (TRKC(NTRK3)): 8.57%
inhibition at 1 µM (p38β): 2.25%
inhibition at 1 µM (TSSK1): 30%
IC50 (FGFR1): 2.58 µM
inhibition at 1 µM (CK2α2/β): -7.98%
inhibition at 1 µM (EPHA4): -6.83%
inhibition at 1 µM (HER2): 10.7%
inhibition at 1 µM (ALK): 7.28%
inhibition at 1 µM (DYRK1A): -1.23%
inhibition at 1 µM (TAOK1): -0.59%
inhibition at 1 µM (BRAF[V600E]): -1.68%
inhibition at 1 µM (KIT): -14.3%
inhibition at 1 µM (PDGFRa): -0.91%
inhibition at 1 µM (MER): 3.59%
inhibition at 1 µM (IKKε(IKBKE)): 7.21%
inhibition at 1 µM (CK1γ3): -7.86%
inhibition at 1 µM (INSR): 0.8%
